Laboratory results taken from patent US20030220267A1, “Borinic acid protease inhibitors” (priority 2001, published 2003).
Read-outs that look alike come from different tables or passages of the source.

Tests used:
HIV-1 protease = biological target: T1, HIV-1 protease (Human immunodeficiency virus type 1 group M subtype B, UniProt P04585); test: HIV-1 protease inhibition; assay type: biochemical, Human immunodeficiency virus 1; details: models such as those described by Pivazyan et al., Biochem. Pharma, 2000, 60, 927
T1 construct: Teach monomer is formed by 99 residues organized in β strands
Source text: The ability of a compound of the invention to act as an inhibitor of HIV-1 protease may be determined using pharmacological models which are well known to the art, such as tnose described by A. D. Pivazyan et al., Biochem. Pharma, 2000, 60, 927.

[1] = Source text: Furthermore, we attempted to separate the crude product on HPLC using a C18 reverse phase column and water/acetonitrile as the solvent. […] Using trifluoroacetic acid as part of the solvent mixture will acidify the media and might prevent decomposition.
chymotrypsin = chymotrypsin (Bos taurus, UniProt P00766); details: pH 7.5; cited from earlier work

Compound	inhibition of HIV-1 protease (HIV-1 protease)	stability under HPLC conditions ([1]; C18 reverse phase column, water/acetonitrile, gradient separation, crude product)	stability in buffer solution ([1]; acidic and neutral media)	stability in buffer solution ([1]; basic conditions)	Ki (chymotrypsin)
[(1R)-1-(Ac-Thr-Leu-Asn)-2-phenylethyl]-B-methylene-L-proline amide borinic acid [Compound I28b]	inhibitors of HIV-1 protease				
[( 1R)-1-(Ac-Ser-Leu-Asn)-2-phenylethyl]-B-methylene-L-proline amide borinic acid [Compound I28a]	inhibitors of HIV-1 protease				
CC(=O)N[C@@H](Cc1ccccc1)B(O)CN1CCC[C@H]1C(N)=O [Compound I24, [(1R)-(1-Acetamido-2-phenylethyl)]-B-methylene-L-proline amide borinic acid]	inhibitors of HIV-1 protease	unstable	stable	quickly decomposes	
CC(=O)N[C@@H](Cc1ccccc1)B(O)O					2100 nM
